Consider twelve compounds from Sander's compilation of Henry's law constants (doi:10.1007/bf00479396).

The data set in a line: Henry solubility constant Hcp at 293 K (mol/(m3 Pa)). To be noted: reference: Tremp et al. (1993).

Each structure is given as a SMILES string.

For `Cc1ccccc1O` [1-hydroxy-2-methylbenzene], the “Henry solubility constant Hcp at 293 K” value turned out to be 7.1. For the compound `Cc1ccc(O)cc1` [1-hydroxy-4-methylbenzene], the “Henry solubility constant Hcp at 293 K” value is 13.

Take `O=[N+]([O-])c1ccc(O)c([N+](=O)[O-])c1` [2,4-dinitrophenol]: the “Henry solubility constant Hcp at 293 K” value was 110. In the case of `O=[N+]([O-])c1ccccc1O` [2-nitrophenol] it was 0.77; in that of `Cc1cc(O)ccc1[N+](=O)[O-]` [3-methyl-4-nitrophenol], 620; in that of `CCC(C)c1ccc(O)c([N+](=O)[O-])c1` (configuration not stated) [4-(1-methylpropyl)-2-nitrophenol], 0.1.

Turning to `COc1ccc(O)c([N+](=O)[O-])c1` [4-methoxy-2-nitrophenol], the “Henry solubility constant Hcp at 293 K” value stood at 5.3.

In the case of `Cc1ccc(O)c([N+](=O)[O-])c1` [4-methyl-2-nitrophenol], the “Henry solubility constant Hcp at 293 K” value is 0.67.

For the compound `O=[N+]([O-])c1ccc(O)cc1` [4-nitrophenol], the “Henry solubility constant Hcp at 293 K” value was found to be 770.

For the compound `O=[N+]([O-])c1ccc(F)cc1O` [5-fluoro-2-nitrophenol], the “Henry solubility constant Hcp at 293 K” value is 0.5. The figure for `Cc1ccc([N+](=O)[O-])c(O)c1` [5-methyl-2-nitrophenol] is 0.77.

As for `Cc1cccc([N+](=O)[O-])c1O` [6-methyl-2-nitrophenol], the “Henry solubility constant Hcp at 293 K” value was 0.29.
